Reference: patent US20210186978A1, “COMBINATION THERAPY” (TARVEDA THERAPEUTICS, INC., priority 2018, published 2021)

Assays:
SSTR2 = SSTR2 expression by IHC after Vorinostat treatment; type: in vivo, mice bearing NCI-H69 tumors
Experimental: Mice bearing NCI-H69 tumors (small cell lung cancer) were treated with Vorinostat for 10 days IP (q.d.×5). Tumors were collected and processed for SSTR2 expression by IHC.
On Day 6 the IRS score doubled from 6 in the vehicle to 12 in the treated group. The immunoreactive score (IRS) is determined by multiplying the staining intensity in four gradations with the percentage of positive cells in five gradations.

NCI-H69 cells = experiment: Conjugate 1 potency in vitro with and without Vorinostat pre-treatment; type: cell-based
Experimental: In a further study, whether increased SSTR2 expression would result in better delivery of Conjugate 1 to small cell lung cancer cells (NCI-H69) was evaluated. Conjugate 1 potency with Vorinostat pre-treatment was compared with Conjugate 1 potency without Vorinostat pre-treatment. […].

[1] = test system: NCI-H69 tumors (small cell lung cancer); experiment: Low doses of Conjugate 1 with Vorinostat, same-day start or pre-treatment, in NCI-H69 model; type: in vivo; conditions: mice
Experimental: In a further study with NCI-H69 model (small cell lung cancer), low doses of Conjugate 1 were given to tumor bearing mice and tumor regression was tracked. 1/3 MTD of Conjugate 1 is 0.7 mpk. 1/6 MTD of Conjugate 1 is 0.35 mpk.
Mice bearing NCI-H69 tumors were treated with a combination of Vorinostat and Conjugate 1 starting on the same day or pre-treated with Vorinostat for 4 days IP then administered low doses of Conjugate 1. In total, mice received 10 total doses of Vorinostat (q.d×5) and 2 doses of Conjugate 1 (q.w.×2).
. No significant body weight loss was observed during these studies. […]

[2] = test system: xenograft models that over-express SSTR2; experiment: Preclinical single agent studies in xenograft models that over-express SSTR2; type: in vivo; conditions: single agent Conjugate 1 treatment
Description: The targeting peptide of Conjugate 1 selectively binds to SSTR2, triggers receptor internalization leading to the accumulation of the DM1 to provide antitumor activity by disrupting microtubule networks causing apoptosis and mitotic catastrophe.

[3] = Conjugate 1 tumor uptake with Vorinostat pre-treatment; type: in vivo, mice bearing NCI-H69 tumors; conditions: Vorinostat pre-treatment vs none; P=0.03
Experimental: In vivo, mice bearing NCI-H69 tumors were pre-treated with Vorinostat then administered Conjugate 1. Tumors were analyzed for Conjugate 1 concentrations.

[4] = test system: NCI-H727 (lung carcinoid) xenograft; experiment: Conjugate 1 and Vorinostat combination in NCI-H727 xenograft model; type: in vivo, mice; conditions: very low SSTR2 (IRS 1)

Row | SMILES | IRS score (SSTR2 expression in tumors) (SSTR2; NCI-H69 tumors, Day 6, Vorinostat IP q.d.x5, vehicle 6) | SSTR2 expression in normal spleen tissues (SSTR2; normal spleen after Vorinostat treatment) | NCI-H69 cell proliferation (NCI-H69 cells; Vorinostat alone) | 1/3 MTD [1] | 1/6 MTD [1] | tumor regression [2] | Conjugate 1 concentrations in tumors [3] | Conjugate 1 potency (NCI-H69 cells; with Vorinostat pre-treatment vs without, NCI-H69 cells in vitro) | activity as a single agent [4]
1 | O=C(CCCCCCC(=O)Nc1ccccc1)NO [Vorinostat, vorinostat] | 12 | an increase in expression was not observed | no effect |  |  |  |  |  | 
2 | COc1cc2cc(c1Cl)N(C)C(=O)C[C@H](OC(=O)[C@H](C)N(C)C(=O)CCSSC[C@H](NC(=O)[C@@H]1CSSC[C@H](NC(=O)[C@H](N)Cc3ccccc3)C(=O)N[C@@H](Cc3ccc(O)cc3)C(=O)N[C@H](Cc3c[nH]c4ccccc34)C(=O)N[C@@H](CCCCN)C(=O)N[C@@H]([C@@H](C)O)C(=O)N1)C(N)=O)C[C@]1(C)O[C@H]1[C@H](C)[C@@H]1C[C@@](O)(NC(=O)O1)[C@H](OC)C/C=C/C=C(\C)C2 [Conjugate 1] |  |  |  | 0.7 mpk | 0.35 mpk | complete and sustained tumor regression | statistically significant (P=0.03) increase | an increase in Conjugate 1 potency was observed | no activity
